The values that follow come from patent US8927533B2, “Thio derivatives bearing lactams as potent HDAC inhibitors and their uses as medicaments” (SIGMA-TAU Industrie Farmaceutiche Riunite S.p.A., priority 2011, dated 2015).

Common to all, as to type: biochemical
For test [1], the target named is HDAC4 (Homo sapiens, UniProt P56524). As to the kind of experiment: HDAC enzymatic assay, HDAC4. Conditions: fluorogenic tetrapeptide RHKKAc substrate 10 μM; read-out: HDAC isoforms IC50 (nM), 4. As for the experimental part: (§1) Each compound was dissolved in DMSO, and progressively diluted solutions were used for testing. […] Upon its deacetylation, the fluorophore was released given rise to fluorescence emission which was detected by a fluorimeter, and the IC50 values of the compounds were determined by analyzing dose-response inhibition curves.
HDAC4, sequence (P56524 whole entry, canonical isoform): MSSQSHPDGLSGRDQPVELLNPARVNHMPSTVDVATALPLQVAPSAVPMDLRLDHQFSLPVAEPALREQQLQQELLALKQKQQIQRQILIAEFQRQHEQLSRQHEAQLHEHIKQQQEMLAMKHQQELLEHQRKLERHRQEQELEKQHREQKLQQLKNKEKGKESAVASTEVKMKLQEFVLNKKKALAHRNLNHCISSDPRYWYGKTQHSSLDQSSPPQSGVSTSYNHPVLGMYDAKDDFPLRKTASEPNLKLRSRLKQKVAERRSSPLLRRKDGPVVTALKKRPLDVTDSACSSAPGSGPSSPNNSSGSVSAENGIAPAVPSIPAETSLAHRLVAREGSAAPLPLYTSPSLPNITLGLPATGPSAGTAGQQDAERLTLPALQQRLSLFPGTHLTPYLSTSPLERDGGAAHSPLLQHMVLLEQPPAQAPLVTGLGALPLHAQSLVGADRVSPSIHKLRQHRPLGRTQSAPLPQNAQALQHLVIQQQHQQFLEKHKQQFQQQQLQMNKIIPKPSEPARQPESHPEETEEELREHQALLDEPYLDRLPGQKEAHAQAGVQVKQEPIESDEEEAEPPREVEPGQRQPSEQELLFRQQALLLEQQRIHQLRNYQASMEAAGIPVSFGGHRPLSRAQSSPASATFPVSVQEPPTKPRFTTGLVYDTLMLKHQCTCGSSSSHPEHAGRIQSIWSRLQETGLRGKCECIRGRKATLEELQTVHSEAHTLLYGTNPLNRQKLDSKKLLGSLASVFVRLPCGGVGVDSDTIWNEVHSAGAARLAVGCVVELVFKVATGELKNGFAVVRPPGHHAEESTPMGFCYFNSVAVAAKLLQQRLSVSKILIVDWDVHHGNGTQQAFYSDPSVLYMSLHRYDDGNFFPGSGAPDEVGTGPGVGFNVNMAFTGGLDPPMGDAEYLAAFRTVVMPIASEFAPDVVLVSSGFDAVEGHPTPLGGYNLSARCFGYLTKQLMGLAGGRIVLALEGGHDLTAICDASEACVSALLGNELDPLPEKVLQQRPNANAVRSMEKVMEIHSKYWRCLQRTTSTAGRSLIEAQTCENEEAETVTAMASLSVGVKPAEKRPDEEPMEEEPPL

Test [2] concerns the target T1, HDAC6 (Homo sapiens, UniProt Q9UBN7).
T1 sequence (Q9UBN7 1-1215): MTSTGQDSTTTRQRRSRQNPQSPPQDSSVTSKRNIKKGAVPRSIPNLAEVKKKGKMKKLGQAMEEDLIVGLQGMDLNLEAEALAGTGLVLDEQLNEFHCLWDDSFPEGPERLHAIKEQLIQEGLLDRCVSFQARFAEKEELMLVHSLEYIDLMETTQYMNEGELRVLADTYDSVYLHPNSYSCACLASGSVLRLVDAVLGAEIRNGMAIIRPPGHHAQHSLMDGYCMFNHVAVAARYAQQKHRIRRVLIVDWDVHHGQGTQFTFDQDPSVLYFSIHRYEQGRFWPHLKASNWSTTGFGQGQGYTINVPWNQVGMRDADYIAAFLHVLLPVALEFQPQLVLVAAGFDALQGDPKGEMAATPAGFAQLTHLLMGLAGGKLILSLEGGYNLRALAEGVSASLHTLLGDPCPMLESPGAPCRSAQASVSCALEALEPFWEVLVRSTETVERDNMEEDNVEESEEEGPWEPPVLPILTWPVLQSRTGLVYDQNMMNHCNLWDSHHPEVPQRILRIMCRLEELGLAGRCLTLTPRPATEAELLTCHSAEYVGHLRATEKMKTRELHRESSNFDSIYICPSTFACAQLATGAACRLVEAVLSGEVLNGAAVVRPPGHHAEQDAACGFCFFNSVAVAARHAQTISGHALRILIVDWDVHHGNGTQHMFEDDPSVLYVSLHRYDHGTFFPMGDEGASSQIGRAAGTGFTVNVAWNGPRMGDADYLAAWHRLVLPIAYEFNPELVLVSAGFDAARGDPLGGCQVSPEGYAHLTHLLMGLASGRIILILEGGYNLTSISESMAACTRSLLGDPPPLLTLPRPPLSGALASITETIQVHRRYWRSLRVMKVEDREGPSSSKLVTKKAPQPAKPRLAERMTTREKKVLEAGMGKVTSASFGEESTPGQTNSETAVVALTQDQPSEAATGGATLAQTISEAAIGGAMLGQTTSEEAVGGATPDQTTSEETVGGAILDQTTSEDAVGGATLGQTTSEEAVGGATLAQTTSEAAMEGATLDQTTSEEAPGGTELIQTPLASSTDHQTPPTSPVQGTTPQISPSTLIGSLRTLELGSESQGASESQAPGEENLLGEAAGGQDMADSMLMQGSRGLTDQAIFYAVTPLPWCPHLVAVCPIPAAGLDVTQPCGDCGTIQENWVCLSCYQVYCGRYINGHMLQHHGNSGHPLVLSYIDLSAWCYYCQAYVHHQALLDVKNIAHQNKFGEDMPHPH
As to the kind of experiment: HDAC enzymatic assay, HDAC6. To be noted: fluorogenic tetrapeptide RHKKAc substrate 10 μM; read-out: HDAC isoforms IC50 (nM), 6. The method, then: as §1

The target of test [3] is T2, HDAC8 (Homo sapiens, UniProt Q9BY41).
T2 sequence (Q9BY41 1-377): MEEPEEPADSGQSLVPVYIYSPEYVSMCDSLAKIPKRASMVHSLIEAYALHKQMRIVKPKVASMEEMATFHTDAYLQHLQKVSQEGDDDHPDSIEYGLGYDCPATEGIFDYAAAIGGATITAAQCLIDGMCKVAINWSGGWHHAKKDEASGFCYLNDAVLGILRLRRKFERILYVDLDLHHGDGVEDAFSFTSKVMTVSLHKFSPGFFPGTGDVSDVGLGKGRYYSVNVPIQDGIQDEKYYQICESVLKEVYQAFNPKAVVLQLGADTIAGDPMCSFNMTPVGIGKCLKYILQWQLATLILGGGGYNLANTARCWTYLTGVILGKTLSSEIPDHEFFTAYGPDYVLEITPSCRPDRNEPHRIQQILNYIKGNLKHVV
As to the kind of experiment: HDAC enzymatic assay, HDAC8. To be noted: fluorogenic tetrapeptide RHKKAc substrate 10 μM; read-out: HDAC isoforms IC50 (nM), 8. As for the experimental part:
as §1

Test [4] concerns the target T3, HDAC11 (Homo sapiens, UniProt Q96DB2).
T3 sequence (Q96DB2 1-347): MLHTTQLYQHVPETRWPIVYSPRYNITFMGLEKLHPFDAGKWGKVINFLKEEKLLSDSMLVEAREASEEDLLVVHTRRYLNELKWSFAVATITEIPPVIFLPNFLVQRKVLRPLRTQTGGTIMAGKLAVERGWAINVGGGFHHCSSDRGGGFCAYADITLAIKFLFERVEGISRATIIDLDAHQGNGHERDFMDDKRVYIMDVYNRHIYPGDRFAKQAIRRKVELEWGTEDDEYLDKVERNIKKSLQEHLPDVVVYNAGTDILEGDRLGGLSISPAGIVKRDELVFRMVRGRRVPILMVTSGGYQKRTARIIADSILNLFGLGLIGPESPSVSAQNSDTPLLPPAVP
Briefly: HDAC enzymatic assay, HDAC11. Conditions: fluorogenic tetrapeptide RHKKAc substrate 10 μM; read-out: HDAC isoforms IC50 (nM), 11. The method, then:
as §1

For orientation: IC50 means the midpoint of a concentration-inhibition curve. Turning to `O=C1CCC[C@@H](C(=O)N[C@@H](CCCCCS)C(=O)Nc2ccccc2)N1` [Example 23, (S)-6-Oxo-piperidine-2-carboxylic acid ((S)-6-mercapto-1-phenylcarbamoyl-hexyl)amide], the IC50 in test [1] was below 50 nM; in test [2], below 50 nM; in test [3], 100 to 500 nM; in test [4] it was below 50 nM.
As to `O=C1CCC[C@@H](C(=O)N[C@@H](CCCCCS)C(=O)NC2CCCC2)N1` [Example 24, (S)-6-Oxo-piperidine-2-carboxylic acid ((S)-1-cyclopentylcarbamoyl-6-mercapto-hexyl)amide], the IC50 in test [1] is below 50 nM; in test [2] it was below 50 nM; in test [3], 100 to 500 nM; in test [4] it was 50 to 100 nM.
For the molecule `O=C1CCC[C@@H](C(=O)N[C@@H](CCCCCS)C(=O)NCc2cccc(OCc3ccccc3)c2)N1` [Example 25, (S)-6-Oxo-piperidine-2-carboxylic acid [(S)-1-(3-benzyloxy-benzylcarbamoyl)-6-mercapto-hexyl]-amide], the IC50 in test [1] is 100 to 500 nM; in test [2], 50 to 100 nM; in test [3], below 50 nM; in test [4] it was 100 to 500 nM.
Consider `O=C1CCC[C@@H](C(=O)N[C@@H](CCCCCS)C(=O)NCc2ccc(C(F)(F)F)cc2)N1` [Example 26, (S)-6-Oxo-piperidine-2-carboxylic acid [(S)-6-mercapto-1-(4-trifluoromethyl-benzylcarbamoyl)-hexyl]-amide], for which the IC50 in test [1] was below 50 nM; in test [2], 100 to 500 nM; in test [3], below 50 nM; in test [4], 100 to 500 nM.
As for `O=C1C[C@@H](C(=O)N[C@@H](CCCCCS)C(=O)Nc2ccccc2)N1` [Example 27, (S)-4-Oxo-azetidine-2-carboxylic acid ((S)-6-mercapto-1-phenylcarbamoyl-hexyl)amide], the IC50 in test [1] is 100 to 500 nM; in test [2], below 50 nM; in test [3], 50 to 100 nM; in test [4], below 50 nM.
`O=C1NC[C@H](c2ccccc2)[C@@H]1C(=O)N[C@@H](CCCCCS)C(=O)Nc1ccccc1` [Example 28, (3S,4S)-2-Oxo-4-phenyl-pyrrolidine-3-carboxylic acid ((S)-6-mercapto-1-phenylcarbamoyl-hexyl)-amide]: the IC50 in test [1] was below 50 nM; in test [2], below 50 nM; in test [3], 100 to 500 nM; in test [4], below 50 nM.
On to `O=C1NC[C@@H](c2ccccc2)[C@H]1C(=O)N[C@@H](CCCCCS)C(=O)Nc1ccccc1` [Example 29, (3R,4R)-2-Oxo-4-phenyl-pyrrolidine-3-carboxylic acid ((S)-6-mercapto-1-phenylcarbamoyl-hexyl)-amide], for which the IC50 in test [1] is below 50 nM; in test [2], below 50 nM; in test [3] it was 100 to 500 nM; in test [4], below 50 nM.
Consider `O=C1NC[C@H](c2ccccc2)[C@H]1C(=O)N[C@@H](CCCCCS)C(=O)Nc1ccccc1` [Example 30, (3R,4S)-2-Oxo-4-phenyl-pyrrolidine-3-carboxylic acid ((S)-6-mercapto-1-phenylcarbamoyl-hexyl)-amide], for which the IC50 is below 50 nM in test [1], 100 to 500 nM in test [2], 100 to 500 nM in test [3] and below 50 nM in test [4].
For `O=C1CCC[C@@H](C(=O)N[C@@H](CCCCCS)C(=O)N2CCc3ccccc3C2)N1` [Example 32, (S)-6-Oxo-piperidine-2-carboxylic acid [(S)-1-(3,4-dihydro-1H-isoquinoline-2-carbonyl)-6-mercapto-hexyl]-amide], the IC50 was below 50 nM in test [1], 100 to 500 nM in test [2], 100 to 500 nM in test [3] and 100 to 500 nM in test [4].
With `Cc1cccc(CCNC(=O)[C@H](CCCCCS)NC(=O)[C@@H]2CCCC(=O)N2)c1` [Example 34, (S)-6-Oxo-piperidine-2-carboxylic acid [(S)-6-mercapto-1-(2-m-tolyl-ethylcarbamoyl)hexyl]-amide], the IC50 in test [1] was below 50 nM; in test [2], below 50 nM; in test [3] it was below 50 nM; in test [4], 50 to 100 nM.
Turning to `O=C1NCCC[C@H]1C(=O)N[C@@H](CCCCCS)C(=O)Nc1ccccc1` [Example 35, (R)-2-Oxo-piperidine-3-carboxylic acid ((S)-6-mercapto-1-phenylcarbamoyl-hexyl)amide], the IC50 is below 50 nM in test [1], below 50 nM in test [2], 50 to 100 nM in test [3] and below 50 nM in test [4].
With `O=C1NCCC[C@@H]1C(=O)N[C@@H](CCCCCS)C(=O)Nc1ccccc1` [Example 36, (S)-2-Oxo-piperidine-3-carboxylic acid ((S)-6-mercapto-1-phenylcarbamoyl-hexyl)amide], the IC50 is below 50 nM in test [1], below 50 nM in test [2], 100 to 500 nM in test [3] and below 50 nM in test [4].
With `O=C1CCC[C@H](C(=O)N[C@@H](CCCCCS)C(=O)Nc2ccccc2)N1` [Example 37, (R)-6-Oxo-piperidine-2-carboxylic acid ((S)-6-mercapto-1-phenylcarbamoyl-hexyl)amide], the IC50 in test [1] was below 50 nM; in test [2], below 50 nM; in test [3], 100 to 500 nM; in test [4], below 50 nM.
For `Cc1cccc(NC(=O)[C@H](CCCCCS)NC(=O)[C@@H]2CCCC(=O)N2)c1` [Example 38, (S)-6-Oxo-piperidine-2-carboxylic acid ((S)-6-mercapto-1-m-tolylcarbamoyl-hexyl)amide], the 50% inhibitory concentration (IC50) in test [1] was 100 to 500 nM; in test [2], below 50 nM; in test [3], 100 to 500 nM; in test [4], below 50 nM.
With `Cc1ccc(NC(=O)[C@H](CCCCCS)NC(=O)[C@@H]2CCCC(=O)N2)cc1` [Example 39, (S)-6-Oxo-piperidine-2-carboxylic acid ((S)-6-mercapto-1-p-tolylcarbamoyl-hexyl)amide], the IC50 in test [1] is 100 to 500 nM; in test [2], below 50 nM; in test [3] it was 100 to 500 nM; in test [4], below 50 nM.
On to `CN1C(=O)CCC[C@H]1C(=O)N[C@@H](CCCCCS)C(=O)Nc1ccccc1` [Example 40, (S)-1-Methyl-6-oxo-piperidine-2-carboxylic acid ((S)-6-mercapto-1-phenylcarbamoyl-hexyl)-amide], for which the IC50 was 100 to 500 nM in test [1], below 50 nM in test [2], 100 to 500 nM in test [3] and below 50 nM in test [4].
